One assay has as its system influenza A virus A/Aichi/2/68 (H3N2) on MDCK cells. As to the kind of experiment: Cytopathic effect (CPE) assay. The class given is cell-based.
Settings: not given
On the technique in general: Damage to the host cells serves as the signal in cytopathic effect assays.
For the molecule `CNC(=O)c1nc(Cc2ccccc2Br)nc(O)c1O`, the “CPE result in words” value is “inactive”.

Regarding `Cc1ccccc1Cc1nc(O)c(O)c(C(=O)O)n1`, the “CPE result in words” value was “inactive”. In the case of `O=C(O)c1c(O)c(=O)nc(Cc2ccccc2Br)n1Cc1ccccc1`, the “CPE result in words” value was “inactive”.

Take `CNC(=O)c1nc(NS(=O)(=O)Cc2cccc(C)c2)n(C)c(=O)c1O`: the “CPE result in words” value was “inactive”. Still for that read-out and setting: the result for `COC(=O)c1nc(Cc2ccc(F)cc2Br)nc(O)c1O` reads “inactive”; that for `O=C(NCc1ccc(Cl)cc1)c1nc(Cc2ccccc2-c2ccccc2)nc(O)c1O`, “inactive”; that for `CNC(=O)c1nc(Cc2ccccc2-c2ccccc2)nc(O)c1O`, “inactive”. For `Cn1c(Cc2ccccc2-c2ccccc2)nc(C(N)=O)c(O)c1=O`, the “CPE result in words” value is “inactive”. As for `CCOC(=O)c1nc(Cc2cncn2Cc2ccccc2)nc(O)c1O`, the “CPE result in words” value was “inactive”. On the same count and under the same terms, the result for `CNC(=O)c1nc(CC2CCCCC2)nc(O)c1O` reads “inactive”.

As for `Cc1cccc(-c2ccccc2Cc2nc(O)c(O)c(C(=O)O)n2)c1`, the “CPE result in words” value is “inactive”.

As to `O=C(O)c1nc(Cc2ccc(F)cc2Br)nc(O)c1O`, the “CPE result in words” value is “inactive”. For the molecule `O=C(O)c1nc(Cc2ccccc2-c2ccccc2)nc(O)c1O`, the “CPE result in words” value was “inactive”. As for `CC(C)NC(=O)c1nc(Cc2ccccc2-c2ccccc2)n(C)c(=O)c1O`, the “CPE result in words” value is “inactive”.

As to `O=C(NCc1ccc(F)cc1)c1nc(Cc2ccccc2Br)nc(O)c1O`, the “CPE result in words” value was “inactive”.

Turning to `CNC(=O)c1nc(NS(=O)(=O)Cc2ccc(Cl)cc2)n(C)c(=O)c1O`, the “CPE result in words” value was “inactive”. As to `COC(=O)c1nc(Cc2ccccc2-c2ccccc2C)nc(O)c1O`, the “CPE result in words” value was “inactive”. As for `COC(=O)c1c(O)c(=O)nc(Cc2ccccc2)n1Cc1ccccc1`, the “CPE result in words” value was “inactive”. Same read-out and setting: the result for `CCOC(=O)c1nc(CC2CCCCC2)nc(O)c1O` reads “inactive”. Consider `O=C(O)c1nc(Cc2ccccc2Br)nc(O)c1O`, for which the “CPE result in words” value was “inactive”. Turning to `O=C(O)c1nc(CC2CCCCC2)nc(O)c1O`, the “CPE result in words” value was “inactive”. As to `NC(=O)c1nc(Cc2ccc(F)cc2Br)nc(O)c1O`, the “CPE result in words” value is “inactive”. On the same count and under the same terms, next, `CNC(=O)c1nc(Cc2ccccc2-c2cc(C)ccc2C)nc(O)c1O`: “inactive”; `CNC(=O)c1nc(Cc2ccccc2-c2ccccc2)n(C)c(=O)c1O`: “inactive”; `Cn1c(CC2(c3ccccc3)CCCC2)nc(C(=O)O)c(O)c1=O`: “inactive”. Same read-out and setting: next, `CNC(=O)c1nc(NS(=O)(=O)Cc2ccccc2)n(C)c(=O)c1O`: “inactive”; `O=C(NCc1ccc(Cl)cc1)c1nc(Cc2ccccc2Br)nc(O)c1O`: “inactive”. As to `Cn1c(NS(=O)(=O)Cc2ccc(Cl)cc2)nc(C(=O)O)c(O)c1=O`, the “CPE result in words” value was “inactive”. For `COC(=O)c1nc(CC2CCCCC2)n(C)c(=O)c1O`, the “CPE result in words” value is “inactive”.

On to `COC(=O)c1nc(Cc2ccccc2Br)nc(O)c1OC(C)=O`, for which the “CPE result in words” value is “inactive”. As for `Cn1c(Cc2ccccc2-c2ccccc2)nc(C(=O)O)c(O)c1=O`, the “CPE result in words” value was “inactive”. For the molecule `O=C(O)c1c(O)c(=O)nc(Cc2ccccc2)n1Cc1ccccc1`, the “CPE result in words” value was “inactive”. On the same count and under the same terms, next, `Cc1ccc(C)c(-c2ccccc2Cc2nc(O)c(O)c(C(=O)O)n2)c1`: “inactive”. For the molecule `CNC(=O)c1nc(NS(=O)(=O)Cc2ccc(C)cc2)n(C)c(=O)c1O`, the “CPE result in words” value is “inactive”. Still for that read-out and setting: the result for `O=C(O)c1nc(Cc2cc(C(F)(F)F)ccc2Br)nc(O)c1O` reads “inactive”; that for `Cc1ccccc1-c1ccccc1Cc1nc(O)c(O)c(C(=O)O)n1`, “inactive”; that for `O=C(NCc1ccccc1)c1nc(Cc2ccccc2-c2ccccc2)nc(O)c1O`, “inactive”.

Take `O=C(O)c1nc(CC(c2ccccc2)c2ccccc2)nc(O)c1O`: the “CPE result in words” value was “inactive”. `O=C(NCc1ccccc1)c1nc(CC2(c3ccccc3)CCCC2)nc(O)c1O`: the “CPE result in words” value is “inactive”.

The assay is the same for the next values; noted with them: Influenza A virus, H3N2, MDCK, in Canis lupus familiaris, 48 h.
For the molecule `O=C(NCCc1ccccc1)c1nc(Cc2ccccc2-c2ccccc2)nc(O)c1O`, 8 µM corresponded to half-maximal inhibition (IC50). `CCOC(=O)c1nc(Cc2ccccc2-c2cc(C)ccc2C)nc(O)c1O` came in with an IC50 of 9.1 µM. The molecule `O=C(O)c1nc(CC2(c3ccccc3)CCCC2)nc(O)c1O` had an IC50 of 49 µM. `CNC(=O)c1nc(CC2(c3ccccc3)CCCC2)n(C)c(=O)c1O` registered an IC50 of 11 µM. The same measure, in the same setting: next, `COC(=O)c1nc(CC2(c3ccccc3)CCCC2)nc(O)c1O`: 12 µM. As for `Cc1ccc(C)c(-c2ccccc2Cc2nc(O)c(O)c(C(=O)OC(C)(C)C)n2)c1`, the half-inhibitory concentration (IC50) was found to be 0.11 µM. `CC(C)NC(=O)c1nc(Cc2ccccc2-c2ccccc2)nc(O)c1O` returned an IC50 of 23 µM. Take `COC(=O)c1nc(Cc2ccccc2-c2cc(C)ccc2C)nc(O)c1O`: the IC50 was found to be 16 µM. In turn, `O=C(NCc1ccc(F)cc1)c1nc(Cc2ccccc2-c2ccccc2)nc(O)c1O` returned an IC50 of 10 µM. Turning to `NC(=O)c1nc(CC2(c3ccccc3)CCCC2)nc(O)c1O`, 42 µM corresponded to half-maximal inhibition (IC50). On to `CNC(=O)c1nc(CC2(c3ccccc3)CCCC2)nc(O)c1O`, for which the IC50 turned out to be 22 µM. Still for that read-out and setting: the result for `COC(=O)c1c(O)c(=O)nc(Cc2ccccc2Br)n1Cc1ccccc1` reads 34 µM; that for `O=C(c1nc(Cc2ccccc2-c2ccccc2)nc(O)c1O)N1CCCC1`, 89 µM.

For orientation: IC50 means the concentration needed to halve the response being measured. Read a low IC50 as higher potency.
